ChEMBL document CHEMBL3414446, “Neoechinulin B and its analogues as potential entry inhibitors of influenza viruses, targeting viral hemagglutinin” (Eur J Med Chem, 2015)

Legend:
[1] = test system: Influenza A virus; experiment: Antiviral activity against amantadine and ribavirin-resistant influenza A virus A/HuNan-huHui/1222/2010 (H3N2) strain; assay type: functional, organism-based
[2] = test system: Influenza A virus; experiment: Antiviral activity against OSV-resistant influenza A virus A/LiaoNing-ZhenXing/1109/2010 (H1N1) strain; assay type: functional, organism-based

Row | SMILES | IC50 [1] [µM] | IC50 [2] [µM]
1 | NC(=O)c1ncn([C@@H]2O[C@H](CO)[C@@H](O)[C@H]2O)n1 [RIBAVIRIN] | > 150 | 1.05
2 | C=CC(C)(C)c1[nH]c2ccccc2c1/C=c1\[nH]c(=O)c(=C)[nH]c1=O [NEOECHINULIN B] | 22.2 | 16.9
3 | CCOC(=O)C1=C[C@@H](OC(CC)CC)[C@H](NC(C)=O)[C@@H](N)C1 [OSELTAMIVIR] | > 20.5 | > 200
4 | NC12CC3CC(CC(C3)C1)C2 [AMANTADINE] | > 200 | 0.82
